Measurements published in PubChem BioAssay AID1259418 (Broad Institute, 2018).
Values joined by “and” are separate entries in the source; they are usually repeats but may differ in a detail not shown here. Equal values may be shown once. Records with an inconclusive call do not appear. Active and inactive are the calls of the source.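 The calls were made as follows: active = fitted half-maximal concentration of signal decrease at or below twice the sample's top tested concentration; inconclusive = flat curve between -70 and -30 percent, or poor fit; inactive = flat within 30 percent, signal rise, or potency above limit.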

The molecules below were run against T. gondii ME49Luc in IFN-y HeLa, luciferase, 72 h (assay: T. gondii growth inhibition with IFN-gamma, dose response, cell-based, ME49Luc, HeLa, luciferase, 72 h (AID 1259418)).
With `Clc1cncc(OC[C@H]2CO[C@@H]3CN(Cc4cccs4)C[C@@H]23)c1` the AC50 was 15.3 µM. `COc1ccc(CNC2=NCCNC23CCN(S(=O)(=O)c2ccc(CC(C)C)cc2)CC3)cc1` was tested, and the AC50 was 6.46 µM. `Cc1cccc(-c2ccc(C3[C@@H]4CN(Cc5cccc(F)c5)C[C@H]3N4)cc2)c1` (some centres not stated) gave an AC50 of 26.2 µM. `CC(C)NC(=O)N1CC(=O)N2[C@@H](CO)[C@H](c3ccc(/C=C/c4ccccc4)cc3)[C@@H]2C1` showed an AC50 of 16.8 µM. `Cc1ccccc1S(=O)(=O)N1CCC(C(=O)NCCc2csc(-c3ccccc3)n2)CC1` was tested, and the AC50 was 25.6 µM. Work on `Cc1ccc(Cn2c(CN3CCC(C(=O)NCCCN4CCCC4)CC3)cc3ccccc32)cc1` yielded an AC50 of 13.4 µM. For `COc1cccc(S(=O)(=O)N2CCCCN3[C@H](CO)[C@H](c4ccc(C#CCC(C)C)cc4)[C@H]3C2)c1`, the AC50 was 16.5 µM and 1.89 µM and 10.4 µM. For `Cc1cccc(OCC(=O)N2CCC3(CC2)Nc2ccc(Cl)cc2-n2cccc23)c1`, the AC50 was 8.26 µM and 14.9 µM. With `Cc1nc2ccccn2c1CN(C)Cc1cnn(-c2ccccc2)c1` the AC50 was > 39 µM (inactive). `CCCC(C)c1c(-c2ccccc2)ncn1Cc1cnc(C)cn1` (configuration not stated) was tested, and the AC50 was 33.4 µM. In the case of `COc1ccc(-c2nc(NC(C)C)c3ccccc3n2)cc1`, the AC50 is reported as > 39 µM (inactive). With `Cc1ccc2c(c1)c1ncn(Cc3nc(C(C)C)no3)c(=O)c1n2CC(=O)N1CCCC1` the AC50 was 14.5 µM. In the case of `O=S(=O)(c1cccs1)N1CCCCN2[C@H](C1)[C@@H](c1ccc(/C=C/c3ccccc3)cc1)[C@@H]2CO`, the AC50 is reported as 15.3 µM. In the case of `O=C(Cc1ccccn1)N1CC(=O)N2[C@H](CO)[C@@H](c3ccc(C#CCC4CCCC4)cc3)[C@@H]2C1`, the AC50 is reported as 9.77 µM and 15.5 µM. `COc1ccc(NS(=O)(=O)c2cc3c4c(c2)CCC(=O)N4CCC3)cc1OC` showed an AC50 of 28.4 µM. In the case of `COCCCN(Cc1ccco1)c1nc(-c2ccc(OC)cc2)nc2ccccc12`, the AC50 is reported as 16.9 µM. `COc1ccc(-c2nc(NCCN3CCN(C)CC3)c3ccccc3n2)cc1` was tested, and the AC50 was 3.52 µM and 27.4 µM. `Cc1cc(C(=O)Nc2ccc3c(c2)C(=O)N(C)[C@H]2CC[C@@H](CC(=O)NCc4ccc(-c5ccccc5)cc4)O[C@@H]2CO3)no1` gave an AC50 of 20.8 µM. `Cc1ccccc1S(=O)(=O)N1CCCCN2[C@H](C1)[C@@H](c1ccc(C#CCN(C)C)cc1)[C@@H]2CO` was tested, and the AC50 was 20.9 µM. With `CN(C)C(=O)COCc1cncc2c1CCN(c1ccccn1)C2` the AC50 was 6.26 µM. With `COCC(=O)N(C[C@H]1N[C@H](CO)[C@@H]1c1ccc(C2=CCCC2)cc1)C1CCCC1` the AC50 was 16.3 µM. In the case of `CCOc1ccc(-c2nc(CN(c3ccc(OCC)cc3)S(=O)(=O)c3ccccc3)c(C)o2)cc1`, the AC50 is reported as 17.1 µM. `COc1cccc(-c2ccc3c(c2)[C@@H]2[C@@H](CCN2S(=O)(=O)c2ccccc2F)[C@@H](CO)N3)c1` gave an AC50 of 25.4 µM. With `CCN1CCN(CCCNc2nc(-c3ccc(Cl)cc3)nc3ccccc23)CC1` the AC50 was > 20 µM (inactive). Molecule `Cn1cc(-c2cnc(Nc3ccccc3)nc2)cc1C(=O)Nc1cccc(O)c1` has an AC50 of 23.6 µM. With `Cc1cc(C)c(S(=O)(=O)N2CCC(C(=O)NCCc3csc(-c4ccccc4)n3)CC2)cc1C` the AC50 was 14.7 µM. In the case of `CCc1cnc(N2[C@H](C#N)[C@@H](c3ccc(C#Cc4ccccc4F)cc3)[C@H]2CO)s1`, the AC50 is reported as 20.5 µM and 6.21 µM. For `Cc1ccccc1-c1ccc([C@@H]2[C@@H](CO)N3CCCCN(S(=O)(=O)Cc4ccccc4)C[C@H]23)cc1`, the AC50 was 19.8 µM. For `COc1ccc2c(c1)NC1(CCN(C(=O)CCc3cc(OC)c(OC)c(OC)c3)CC1)c1cccn1-2`, the AC50 was > 39 µM (inactive). `O=C(Nc1cccc(F)c1)N1CCCCN2[C@H](C1)[C@@H](c1ccc(C#Cc3cccnc3)cc1)[C@@H]2CO` showed an AC50 of 10.3 µM. `OC[C@H]1[C@@H](c2ccc(C#Cc3ccccc3F)cc2)[C@@H]2CN(CC3CCOCC3)CCCCN12` gave an AC50 of 15.9 µM. `Cc1cccc(-c2ccc([C@@H]3[C@H](CO)N4CCCCN(S(=O)(=O)c5ccccc5F)C[C@@H]34)cc2)c1` was tested, and the AC50 was 16.6 µM and 10.7 µM. In the case of `N#C[C@@H]1[C@H](c2ccc(-c3cccc(F)c3)cc2)[C@H](CO)N1C(=O)NC1CCCC1`, the AC50 is reported as 15.1 µM and 4.56 µM. `COc1ccc(-c2ccc3c(c2)[C@H]2[C@H](CCN2C(=O)c2cccc(F)c2)[C@H](CO)N3)cc1` was tested, and the AC50 was 16 µM. `COCCn1c(=S)[nH]c2cc(C(=O)N3CCC(O)(c4cccc(C(F)(F)F)c4)CC3)ccc2c1=O` gave an AC50 of 34.1 µM. For `CC1CCCCN1CCNc1nc(-c2ccc(Cl)cc2)nc2ccccc12` (configuration not stated), the AC50 was 10.9 µM and 12.7 µM. Molecule `Cc1cc(C)c(S(=O)(=O)N2CCC3(CC2)NCCN=C3NCc2cc(F)cc(F)c2)cc1C` has an AC50 of 7.83 µM. With `CCOc1ccc(NC(=O)CN2CCC3(CC2)N=C(c2ccc(Cl)cc2)C(=O)N3)cc1` the AC50 was > 39 µM (inactive). For `O=C(c1ccc(F)cc1)N1CC(=O)N2[C@H](C1)[C@@H](c1ccc(C#CCC3CCCC3)cc1)[C@@H]2CO`, the AC50 was 20.4 µM and 10.1 µM. For `COc1ccc(-c2nc(C)c(-c3ccc(SCc4cccc(C(F)(F)F)c4)nn3)s2)cc1`, the AC50 was > 39 µM (inactive). In the case of `Cc1ccc(NC(=O)N2CCN(Cc3nc(-c4ccccc4C)oc3C)CC2)cc1F`, the AC50 is reported as > 39 µM (inactive). `COCCCNc1ncnc2c1cnn2-c1cccc(C)c1` gave an AC50 of 14.6 µM. `COc1cccc(-c2nc(C)c(-c3ccc(SCc4ccccc4)nn3)s2)c1` was tested, and the AC50 was 12.7 µM. `Cc1cc(C(F)(F)F)nn1CC(=O)N1CCCC1c1cc(C(C)C)on1` (configuration not stated) gave an AC50 of 32.6 µM. With `COc1cccc(C#Cc2ccc([C@@H]3[C@H](C#N)N(C(=O)c4ccccn4)[C@H]3CO)cc2)c1` the AC50 was 20.7 µM. With `COc1cccc(NC(=O)N2CC(=O)N3[C@H](C2)[C@@H](c2ccc(C#CCC4CCCC4)cc2)[C@@H]3CO)c1` the AC50 was 17 µM and 3.35 µM. `CCOc1ccccc1N(Cc1nc(-c2ccc(C)cc2)oc1C)S(=O)(=O)c1cccs1` gave an AC50 of 9.38 µM.
